According to ChEMBL document CHEMBL6071160, “Identification of a novel 10-hydroxyevodiamine prodrug as a potent topoisomerase inhibitor with improved aqueous solubility for treatment of hepatocellular carcinoma” (Eur J Med Chem, 2024):
Calls of active or inactive are those of the source. No cut-off for these calls is given here.

Tests used:
SK-HEP1 [1] = assay: Induction of apoptosis in human SK-HEP1 cells assessed as early apoptotic cells at 40 nM measured after 24 hrs by Annexin-V-FITC/PI analysis (reference value: 1.45%); format: functional
Huh-7 [2] = assay: Inhibition of cell invasion in human Huh-7 cells assessed as decrease in number of cells migration into lower compartment at 40 nM measured after 24 hrs by transwell assay; format: functional, cell-based
Huh-7 [3] = assay: Induction of cell cycle arrest in human Huh-7 cells assessed as accumulation of cells at S phase 20 nM measured after 24 hrs by flow cytometric assay (reference value: 23.33%); format: functional
SK-HEP1 [4] = assay: Induction of apoptosis in human SK-HEP1 cells assessed as loss of mitochondrial membrane potential by measuring JC-1 stained cells at 80 nM measured after 24 hrs by JC-1 staining based flow cytometry (reference value: 0.49%); format: functional
SK-HEP1 [5] = assay: Induction of cell cycle arrest in human SK-HEP1 cells assessed as accumulation of cells at S phase 80 nM measured after 24 hrs by flow cytometric assay (reference value: 30.04%); format: functional
Huh-7 [6] = assay: Induction of apoptosis in human Huh-7 cells assessed as viable cells at 40 nM measured after 24 hrs by Annexin-V-FITC/PI analysis (reference value: 97.46%); format: functional; conditions: read-out: Activity
[7] = Tmax in Sprague-Dawley rat at 10 mg/kg, ip measured upto 24 hrs by LC-MS/MS analysis; format: ADME, organism-based; conditions: in vivo
Huh-7 [8] = assay: Induction of apoptosis in human Huh-7 cells assessed as loss of mitochondrial membrane potential by measuring JC-1 stained cells at 80 nM measured after 24 hrs by JC-1 staining based flow cytometry (reference value: 2.27%); format: functional
Huh-7 [9] = assay: Induction of apoptosis in human Huh-7 cells assessed as early apoptotic cells at 40 nM measured after 24 hrs by Annexin-V-FITC/PI analysis (reference value: 1.04%); format: functional
Huh-7 [10] = assay: Induction of cell cycle arrest in human Huh-7 cells assessed as accumulation of cells at S phase 40 nM measured after 24 hrs by flow cytometric assay (reference value: 23.33%); format: functional
[11] = Toxicity in BALB/c nude mouse subcutaneously injected with human Huh-7 cells assessed as change in body weight at 40 mg/kg, ip administered once daily measured after 14 days; format: organism-based; conditions: in vivo, 336 h, time 14 day
SK-HEP1 [12] = assay: Induction of cell cycle arrest in human SK-HEP1 cells assessed as accumulation of cells at G2 phase 20 nM measured after 24 hrs by flow cytometric assay (reference value: 22.41%); format: functional
[13] = Toxicity in BALB/c nude mouse subcutaneously injected with human Huh-7 cells assessed as animal death at 10 to 20 mg/kg, ip administered once daily measured after 14 days; format: organism-based; conditions: in vivo, 336 h, dose 10-20 mg/kg, time 14 day
SK-HEP1 [14] = assay: Inhibition of cell invasion in human SK-HEP1 cells assessed as decrease in number of cells migration into lower compartment at 10 nM measured after 24 hrs by transwell assay; format: functional, cell-based
[15] = Toxicity in BALB/c nude mouse subcutaneously injected with human Huh-7 cells assessed as changes in lung tissue at 10 mg/kg, ip administered once daily measured after 14 days by H and E staining based assay; format: organism-based; conditions: in vivo, 336 h, time 14 day
[16] = Toxicity in BALB/c nude mouse subcutaneously injected with human Huh-7 cells assessed as change in body weight at 10 to 20 mg/kg, ip administered once daily measured after 14 days; format: organism-based; conditions: in vivo, 336 h, dose 10-20 mg/kg, time 14 day
Huh-7 [17] = assay: Induction of apoptosis in human Huh-7 cells assessed as ROS generation by measuring DCFH2-DA stained cells at 40 nM measured after 24 hrs […] (reference value: 0.45%); format: functional
[18] = Toxicity in BALB/c nude mouse subcutaneously injected with human Huh-7 cells assessed as changes in heart tissue at 10 mg/kg, ip administered once daily measured after 14 days by H and E staining based assay; format: organism-based; conditions: in vivo, 336 h, time 14 day
[19] = Half life in Sprague-Dawley rat at 10 mg/kg, ip measured upto 24 hrs by LC-MS/MS analysis; format: ADME, organism-based; conditions: in vivo
[20] = Chemical stability of compound at pH 5.5 assessed as residual rate measured after 2 days; format: physicochemical; conditions: buffer, time 2 day, read-out: Stability
Huh-7 [21] = assay: Induction of cell cycle arrest in human Huh-7 cells assessed as accumulation of cells at G2 phase 40 nM measured after 24 hrs by flow cytometric assay (reference value: 13.66%); format: functional
Huh-7 [22] = assay: Inhibition of cell migration in human Huh-7 cells at 20 nM measured for 24 hrs by scratch wound healing assay; format: functional, cell-based
Huh-7 [23] = assay: Induction of cell cycle arrest in human Huh-7 cells assessed as accumulation of cells at G1 phase 80 nM measured after 24 hrs by flow cytometric assay (reference value: 63.01%); format: functional
NCI-H1703 = assay: Antiproliferative activity against human NCI-H1703 cells assessed as decrease in EdU positive cells measured after 24 hrs by Edu incorporation based fluorescence microscopic analysis; format: functional, cell-based; conditions: dose 10-40 nM
Huh-7 [24] = assay: Induction of apoptosis in human Huh-7 cells assessed as ROS generation by measuring DCFH2-DA stained cells at 80 nM measured after 24 hrs […] (reference value: 0.45%); format: functional
SK-HEP1 [25] = assay: Induction of apoptosis in human SK-HEP1 cells assessed as early apoptotic cells at 20 nM measured after 24 hrs by Annexin-V-FITC/PI analysis (reference value: 1.45%); format: functional
Huh-7 [26] = assay: Induction of apoptosis in human Huh-7 cells assessed as necrotic cells at 20 nM measured after 24 hrs by Annexin-V-FITC/PI analysis (reference value: 0.27%); format: functional
SK-HEP1 [27] = assay: Induction of apoptosis in human SK-HEP1 cells assessed as early apoptotic cells at 80 nM measured after 24 hrs by Annexin-V-FITC/PI analysis (reference value: 1.45%); format: functional
SK-HEP1 [28] = assay: Induction of apoptosis in human SK-HEP1 cells assessed as loss of mitochondrial membrane potential by measuring JC-1 stained cells at 20 nM measured after 24 hrs by JC-1 staining based flow cytometry (reference value: 0.49%); format: functional
Huh-7 [29] = assay: Induction of cell cycle arrest in human Huh-7 cells assessed as accumulation of cells at G2 phase 80 nM measured after 24 hrs by flow cytometric assay (reference value: 13.66%); format: functional
[30] = Toxicity in BALB/c nude mouse subcutaneously injected with human Huh-7 cells assessed as change in body weight at 10 mg/kg, ip administered once daily measured after 14 days; format: organism-based; conditions: in vivo, 336 h, time 14 day
Huh-7 [31] = assay: Induction of apoptosis in human Huh-7 cells assessed as necrotic cells at 80 nM measured after 24 hrs by Annexin-V-FITC/PI analysis (reference value: 0.27%); format: functional
Huh-7 [32] = assay: Induction of apoptosis in human Huh-7 cells assessed as late apoptotic cells at 40 nM measured after 24 hrs by Annexin-V-FITC/PI analysis (reference value: 1.23%); format: functional
SK-HEP1 [33] = assay: Induction of apoptosis in human SK-HEP1 cells assessed as necrotic cells at 20 nM measured after 24 hrs by Annexin-V-FITC/PI analysis (reference value: 0.70%); format: functional

C[N+](C)(C)CCC(=O)Oc1ccc2[nH]c3c(c2c1)CCN1C(=O)c2cc(F)cc(F)c2N(c2cccc(F)c2)C31.[I-] (centres undefined)
Activity (SK-HEP1 [1]): 5.11%
inhibition (Huh-7 [2]): Active
Activity (Huh-7 [3]): 27.35%
Activity (SK-HEP1 [4]): 18.32%
Activity (SK-HEP1 [5]): 18.41%
viability at 0.04 µM (Huh-7 [6]): 94.2%
Tmax [7]: 1.67 h
Activity (Huh-7 [8]): 12.52%
Activity (Huh-7 [9]): 2.84%
Activity (Huh-7 [10]): 21.3%
Activity [11]: Toxic
Activity (SK-HEP1 [12]): 23.61%
Activity [13]: Non-Toxic
inhibition (SK-HEP1 [14]): Active
Activity [15]: Non-Toxic
Activity [16]: Non-Toxic
Activity (Huh-7 [17]): 1.09%
Activity [18]: Non-Toxic
half-life [19]: 3.15 h
remaining at 48 h [20]: 55.8%
Activity (Huh-7 [21]): 11.72%
inhibition (Huh-7 [22]): Active
Activity (Huh-7 [23]): 6.79%
Activity (NCI-H1703): Dose-Dependent Effect
Activity (Huh-7 [24]): 17.92%
Activity (SK-HEP1 [25]): 1.59%
Activity (Huh-7 [26]): 0.11%
Activity (SK-HEP1 [27]): 22.57%
Activity (SK-HEP1 [28]): 0.78%
Activity (Huh-7 [29]): 86.5%
Activity [30]: Non-Toxic
Activity (Huh-7 [31]): 0.83%
Activity (Huh-7 [32]): 2.89%
Activity (SK-HEP1 [33]): 0.47%
